Test results reported in patent publication US20250281413A1, “PHARMACEUTICAL COMPOSITION” (Novartis AG, priority 2021, published 2025).
Converted amounts (≈) assume the structure as drawn.

What was measured:
Assay type in all cases: physicochemical
[1] = Particle size of wet-media milled suspension by Photon Correlation Spectroscopy (PCS); details: Example 7
Description: The following examples illustrate the invention and provide support for the disclosure of the present invention without limiting the scope of the invention. • Analytical Centrifugation (AC), e.g., LUMiSizer, LUM GmbH Germany, SEPView 6.1.2570.2022. Wet dispersion method using purified water solution for dilution of suspension to appropriate attenuation level with about 10 to 70% transmission of first measurement profile. The reported results for X10, X50, X90 are intensity weighted. • Photon Correlation Spectroscopy (PCS), e.g., Zetasizer Nano ZS, Malver Panalytical Ltd., UK, Version 7.3. Wet dispersion method using 0.1 mM NaCl solution (in purified water) for dilution of suspension to appropriate attenuation level with about 2 to 9 attenuator index. The reported results for Xmean are intensity weighted. In particular, the attenuator index is 5. Preferably, the measurement is carried at 25° C. […]

[2] = Dissolution rate of capsules filled with granule particles (paddle 50 rpm); details: pH 3, 50 mg dose in 900 mL
Experimental: Variant P7 was selected as the optimized granule composition in terms of copovidone and SLS ratio, thus the amount to be sprayed on the inert substrate (carrier particle) allow a drug load of 20%, based on the total weight of the granule particle, in a reasonable processing time. The dissolution performance of the different variant of granule particle compositions was evaluated to ensure the dissolution profile was in a good range. The dissolution rate is measured by conventional method (paddle method according to Pharm. Eur. 2.9.3 “Dissolution Test for Solid Dosage Forms” or US Pharmacopeia <711> “Dissolution” or Japanese Pharmacopiea <6.10> “Dissolution Test), as it can be seen in FIG. 1 and FIG. 2, by adding the granule particles prepared as mentioned in Table 1 into capsules (e.g. hard gelatin capsule). […] Some of the tested capsules comprising the above mentioned granule particles, the disintegration and dispersion of the content was delayed, leading to a delayed dissolution rate (DR) profile at paddle 50 rpm. […]
In order to have a better understanding of the formulation/pH profile, the dissolution rate profiles of the formulations described in Table 2 and Table 3 were measured at pH 2, pH 3, pH 4.5 and pH 6.8. […]

[3] = pH dependent solubility of Compound (A)

particle size of the DS in wet media milled before dilution for spray granulation [1]: 123 nm
percent of dose dissolved at plateau [2]: 90%
Biopharmaceutics classification system Class [3]: Class 2
solubility ([3]; pH 1.2, simulated gastric fluid): 3000 µg/mL (≈ 5910 µM)
solubility ([3]; pH 2, simulated gastric fluid): 300 µg/mL (≈ 591 µM)
solubility ([3]; pH 3, aqueous buffer): 3 µg/mL (≈ 5.91 µM)
Compound: C=CC(=O)N(C)CCOc1c(N)ncnc1-c1cc(F)cc(NC(=O)c2ccc(C3CC3)cc2F)c1C [Compound (A), N-(3-(6-amino-5-(2-(N-methylacrylamido)ethoxy)pyrimidin-4-yl)-5-fluoro-2-methylphenyl)-4-cyclopropyl-2-fluorobenzamide]
